Data on two compounds can be found in paper PMC6320337, “Hepatocyte growth factor activator inhibitor-2 stabilizes Epcam and maintains epithelial organization in the mouse intestine” (Communications Biology, 2019).

The target in one experiment is T1, hepsin (Homo sapiens, UniProt P05981).
T1 construct: gene HPN
Nature of the experiment: fluorescent kinetic enzyme inhibition assay.

Another experiment deals with T2, matriptase (Homo sapiens, UniProt Q9Y5Y6).
T2 construct: gene ST14; recombinant catalytic domain (#3946-SEB, R&D Systems)
T2 sequence (Q9Y5Y6 615-855 limits assumed): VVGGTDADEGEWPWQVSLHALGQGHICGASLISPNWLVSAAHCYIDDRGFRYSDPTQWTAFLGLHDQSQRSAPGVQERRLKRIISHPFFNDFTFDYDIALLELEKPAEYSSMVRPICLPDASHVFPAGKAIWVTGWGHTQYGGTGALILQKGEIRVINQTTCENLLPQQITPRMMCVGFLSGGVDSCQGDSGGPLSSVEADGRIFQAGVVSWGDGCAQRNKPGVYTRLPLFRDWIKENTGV
Briefly: fluorescent kinetic enzyme inhibition assay. In kind it is biochemical.

T1 sequence (P05981 45-162 limits assumed): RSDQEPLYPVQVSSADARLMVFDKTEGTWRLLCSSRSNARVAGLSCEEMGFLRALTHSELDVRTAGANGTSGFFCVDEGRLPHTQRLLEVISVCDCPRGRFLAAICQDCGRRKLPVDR
T1 sequence (P05981 163-417 limits assumed): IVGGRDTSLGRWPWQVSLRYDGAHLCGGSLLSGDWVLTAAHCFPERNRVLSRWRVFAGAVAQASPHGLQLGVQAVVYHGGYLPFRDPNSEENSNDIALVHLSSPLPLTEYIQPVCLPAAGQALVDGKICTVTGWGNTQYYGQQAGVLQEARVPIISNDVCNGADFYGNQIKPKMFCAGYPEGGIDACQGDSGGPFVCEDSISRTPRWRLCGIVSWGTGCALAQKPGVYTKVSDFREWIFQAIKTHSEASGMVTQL

As to `N=C(N)NCCC[C@H](NC(=O)[C@H](CC(N)=O)NC(=O)OCC1c2ccccc2-c2ccccc21)C(=O)c1nc2ccccc2s1` [ZFH7185-3], the inhibition constant (Ki) on hepsin turned out to be 1.7 nM; on matriptase, 106 nM.

Regarding `N=C(N)NCCC[C@H](NC(=O)CNC(=O)OCC1c2ccccc2-c2ccccc21)C(=O)c1nc2ccccc2s1` [ZFH7185-8], the inhibition constant Ki was 831 nM on hepsin and 0.13 nM at matriptase.

One may read the Ki as the dissociation constant of the complex between target and ligand, obtained from inhibition or displacement. The low end stands for higher affinity, the high end for lower affinity.
